Measurements published in paper PMC6412019, “Discovery of NV-5138, the first selective Brain mTORC1 activator” (Scientific Reports, 2019).
“Also recorded” adds a separate entry of the source.

Key:
BCAT2 = target: T1, BCAT2 (Homo sapiens, UniProt O15382); experiment: BCAT enzymatic assay (substrate test), BCAT2; format: biochemical; conditions: NADH oxidation at 340 nm; tested up to 1.5 mM
T1 construct: purchased OriGene TP300625
T1 sequence (O15382 28-392): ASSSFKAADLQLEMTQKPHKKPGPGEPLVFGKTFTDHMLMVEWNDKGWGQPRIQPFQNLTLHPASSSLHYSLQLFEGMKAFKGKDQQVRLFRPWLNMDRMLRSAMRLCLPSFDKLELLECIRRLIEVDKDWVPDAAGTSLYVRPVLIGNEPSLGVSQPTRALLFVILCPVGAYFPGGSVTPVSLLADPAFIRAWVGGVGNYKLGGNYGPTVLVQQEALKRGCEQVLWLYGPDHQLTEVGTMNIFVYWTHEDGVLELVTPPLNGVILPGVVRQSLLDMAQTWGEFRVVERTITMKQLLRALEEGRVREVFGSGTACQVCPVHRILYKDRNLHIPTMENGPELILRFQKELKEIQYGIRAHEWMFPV
Experimental: BCAT exists in two isoforms, mitochondrial BCAT2 which is ubiquitously expressed, and cytosolic BCAT1, which is predominantly expressed in embryonic tissues and the adult brain. To determine whether NV-5138 is a substrate for BCAT isoforms, we established an in vitro enzymatic assay using purified BCAT1 and BCAT2 and performed the assay in the forward direction as described. […] The disappearance of absorbance at 340 nm due to NADH oxidation is measured continuously over time.
The assay buffer was dispensed into a 96-well plate and brought up to 37 °C for 10 min before adding BCAT1 or BCAT2 (72 ng) in 0.1 M potassium phosphate buffer. Absorbance at 340 nm was then read every minute for 30 min at RT using an Envision plate reader. Source of each reagents used can be found in Supplementary Information.

Sestrin2 = target: T2, Sestrin2 (Homo sapiens, UniProt P58004); experiment: Cellular thermal shift assay (CETSA), intracellular Sestrin2 in HEK-293T cells; format: cell-based; conditions: 30 min, leucine-starved HEK293T cells, read-out: increase of melting temperature of intracellular Sestrin2
T2 sequence (P58004 1-480): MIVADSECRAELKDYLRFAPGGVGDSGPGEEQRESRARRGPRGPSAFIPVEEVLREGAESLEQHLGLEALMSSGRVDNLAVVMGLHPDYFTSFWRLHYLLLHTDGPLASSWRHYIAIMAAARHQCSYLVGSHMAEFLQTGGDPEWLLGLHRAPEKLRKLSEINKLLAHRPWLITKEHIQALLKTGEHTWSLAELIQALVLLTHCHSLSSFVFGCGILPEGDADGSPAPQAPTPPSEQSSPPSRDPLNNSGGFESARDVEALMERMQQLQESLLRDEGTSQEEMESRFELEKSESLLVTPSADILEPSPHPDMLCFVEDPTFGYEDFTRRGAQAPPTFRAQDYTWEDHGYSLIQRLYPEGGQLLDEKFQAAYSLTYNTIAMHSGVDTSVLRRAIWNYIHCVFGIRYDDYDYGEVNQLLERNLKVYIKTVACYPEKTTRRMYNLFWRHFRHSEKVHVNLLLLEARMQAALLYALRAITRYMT
Experimental: (§1) Expression of flag-WDR24 allows for immunoprecipitation of the Sestrin2/GATOR2 complex from amino acid-starved cells with an anti-flag antibody. […] Finally, to determine whether Sestrins and the GATOR pathway are required for NV-5138 activity, HEK-293T cells null for all three Sestrin isoforms or the GATOR1 component Nprl3 were obtained.
(§2) CETSA was performed as previously described. […] Cells were then collected, centrifuged for 3 min at 300 g at room-temperature (RT), washed with PBS, centrifuged again, and finally resuspended in 1 ml of RT PBS containing EDTA-free protease-inhibitor tablets (Roche). 100 µl of each cell suspension was heated at the noted temperature for 3 min, samples were then placed on the bench at RT for 3 min before being flash-frozen in liquid nitrogen. To lyse the cells, samples were put through two cycles of freeze-thawing followed by centrifugation at 20,000 g for 20 min at 4 °C. 80 µl of the resulting supernatant was denatured and, resolved by SDS-PAGE. Membranes were imaged using the LI-COR imaging system. Antibodies used are listed in Supplementary Information.

Sestrin3 = target: T3, Sestrin3 (Homo sapiens, UniProt P58005); experiment: Cellular thermal shift assay (CETSA), intracellular Sestrin3 in HEK-293T cells; format: cell-based; conditions: 300 µM, 30 min, leucine-starved HEK293T cells
T3 construct: endogenous in cells; host or cells: HEK-293T
T3 sequence (P58005 1-492): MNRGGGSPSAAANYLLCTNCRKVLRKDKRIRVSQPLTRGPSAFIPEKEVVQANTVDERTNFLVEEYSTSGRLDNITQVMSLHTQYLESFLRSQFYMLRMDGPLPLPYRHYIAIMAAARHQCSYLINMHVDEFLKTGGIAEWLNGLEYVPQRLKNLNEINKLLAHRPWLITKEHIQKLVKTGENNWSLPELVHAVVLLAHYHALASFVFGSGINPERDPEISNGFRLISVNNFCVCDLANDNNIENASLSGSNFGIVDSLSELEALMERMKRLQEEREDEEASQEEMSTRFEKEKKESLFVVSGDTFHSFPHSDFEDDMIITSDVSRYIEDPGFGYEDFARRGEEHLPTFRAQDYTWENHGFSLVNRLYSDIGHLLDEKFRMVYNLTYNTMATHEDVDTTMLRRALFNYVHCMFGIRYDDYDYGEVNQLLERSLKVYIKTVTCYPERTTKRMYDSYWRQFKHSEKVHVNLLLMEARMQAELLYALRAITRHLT
Experimental: as §1, §2

[1] = target: T4, Sestrin2/GATOR2 interaction (Homo sapiens, UniProt P58004); experiment: Sestrin2/GATOR2 interaction in intact flag-WDR24 HEK-293T cells; format: cell-based; conditions: leucine-starved 50 min, compound 10 min
T4 construct: expressed in transfected cells; host or cells: HEK-293T stably expressing Flag-WDR24; Sestrin2 and the other GATOR2 subunits endogenous
T4 sequence (P58004 1-480): T2 sequence (P58004 1-480)
Experimental: as §1
All cell lines were cultured in DMEM supplemented with 10% FBS and maintained at 37 °C and 5% CO2. HEK-293T cells stably expressing Flag-WDR24 was generated as previously described. […] Details of reagent used for cell culture can be found in Supplementary Information.
Cell lysates were prepared as previously described. Lysates were cleared by centrifugation at 13,200 rpm at 4 °C for 8 min. For anti-FLAG IPs, the FLAG-M2 affinity gel was added to approximately 2 mg of lysates and incubated with rotation for 3 h at 4 °C. Following IP, the beads were washed one time with Triton wash buffer containing 500 mM NaCl. […] After compound incubation, IPs were collected by centrifugation. Immunoprecipitated proteins were denatured and, resolved by SDS-PAGE. Membranes were imaged using the LI-COR imaging system. Reagents and antibodies used are listed in Supplementary Information.

[2] = system: NMDA receptors expressed in Xenopus laevis oocytes; experiment: Two electrode voltage-clamp electrophysiology of NMDA receptors in oocytes; format: cell-based; conditions: 300 µM final concentration; data not shown
Experimental: While mTORC1 activation by NV-5138 appears dependent upon an intact Sestrins/GATOR2 pathway and not upon protein incorporation or transamination by BCAT, NV-5138 was tested for off-target activity in the Eurofins/Cerep panel of over 100 potential targets. The selectivity panel included AMPA, kainate and NMDA receptor isoforms (Supplementary Table 2a–c). […] As observed in the Eurofins/Cerep panel, there was no effect of NV-5138 at 300 µM final concentration (data not shown).

| Compound | transamination by BCAT2 (BCAT2) | ΔTm at 300 µM (Sestrin2) [°C] | change of melting temperature of intracellular Sestrin3 (Sestrin3) | disruption of GATOR2-bound Sestrin2 in intact cells [1] | functional inhibition of maximally-activated NMDA receptors [2] |
| --- | --- | --- | --- | --- | --- |
| CC(C)(C[C@H](N)C(=O)O)C(F)F [NV-5138, (S)-2-amino-5,5-difluoro-4,4-dimethylpentanoic acid] | no decrease in absorption at 340 nm; also recorded: did not observe any transamination | ~2 | neither NV-5138 nor leucine changed the melting temperature; also recorded: does not impact the melting temperature | resulted in disruption of GATOR2-bound Sestrin2 | no effect |
| CC(C)C[C@H](N)C(=O)O [Leucine, L-leucine, reference compound] | transaminated by BCAT1 and BCAT2 | ~2 | neither NV-5138 nor leucine changed the melting temperature |  |  |
